Data as given in US11572590B2, “Methods for evaluating tumor cell spheroids using 3D microfluidic cell culture device” (Dana-Farber Cancer Institute, Inc., priority 2017, dated 2023).
Read-outs that look alike come from different tables or passages of the source.

Assays:
Assay in all cases: SelectScreen Kinase Profiling, single point inhibition and IC50 for off-target kinases
Assay type in all cases: biochemical
off-target kinases [1] = target: off-target kinases (Homo sapiens, UniProt P10721, T670E); settings: KIT T670E (mutant), LanthaScreen Binding
off-target kinases [2] = target: T1, off-target kinases (Homo sapiens, UniProt Q13237); settings: PRKG2 (PKG2), ZLYTE, ATP Km app
T1 sequence (Q13237 1-762): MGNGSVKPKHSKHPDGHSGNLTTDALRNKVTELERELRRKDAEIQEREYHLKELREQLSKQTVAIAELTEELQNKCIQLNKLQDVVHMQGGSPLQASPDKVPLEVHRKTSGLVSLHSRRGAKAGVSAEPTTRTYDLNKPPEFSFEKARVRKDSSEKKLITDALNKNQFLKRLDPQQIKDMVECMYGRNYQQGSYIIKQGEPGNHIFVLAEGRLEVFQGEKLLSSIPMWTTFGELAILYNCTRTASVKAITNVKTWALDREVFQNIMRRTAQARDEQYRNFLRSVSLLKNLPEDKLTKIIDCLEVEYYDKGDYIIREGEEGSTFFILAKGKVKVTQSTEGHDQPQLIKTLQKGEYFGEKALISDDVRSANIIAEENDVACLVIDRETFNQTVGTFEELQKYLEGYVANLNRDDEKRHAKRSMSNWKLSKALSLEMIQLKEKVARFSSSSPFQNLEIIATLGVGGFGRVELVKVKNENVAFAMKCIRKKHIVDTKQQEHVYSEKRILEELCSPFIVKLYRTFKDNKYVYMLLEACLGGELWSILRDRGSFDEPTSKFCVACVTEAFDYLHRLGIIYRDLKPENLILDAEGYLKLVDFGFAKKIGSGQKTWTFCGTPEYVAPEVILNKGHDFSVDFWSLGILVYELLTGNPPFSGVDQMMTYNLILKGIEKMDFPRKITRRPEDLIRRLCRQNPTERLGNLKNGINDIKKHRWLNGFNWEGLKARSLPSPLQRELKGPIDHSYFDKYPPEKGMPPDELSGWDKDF

off-target kinases [3] = target: off-target kinases (Homo sapiens, UniProt Q8N4C8); settings: MINK1, ATP Km app, ZLYTE
off-target kinases [4] = target: off-target kinases (Homo sapiens, UniProt Q9P289); settings: MST4, ZLYTE, ATP Km app
Chain of off-target kinases (Homo sapiens, UniProt Q9P289) (Q9P289 whole entry): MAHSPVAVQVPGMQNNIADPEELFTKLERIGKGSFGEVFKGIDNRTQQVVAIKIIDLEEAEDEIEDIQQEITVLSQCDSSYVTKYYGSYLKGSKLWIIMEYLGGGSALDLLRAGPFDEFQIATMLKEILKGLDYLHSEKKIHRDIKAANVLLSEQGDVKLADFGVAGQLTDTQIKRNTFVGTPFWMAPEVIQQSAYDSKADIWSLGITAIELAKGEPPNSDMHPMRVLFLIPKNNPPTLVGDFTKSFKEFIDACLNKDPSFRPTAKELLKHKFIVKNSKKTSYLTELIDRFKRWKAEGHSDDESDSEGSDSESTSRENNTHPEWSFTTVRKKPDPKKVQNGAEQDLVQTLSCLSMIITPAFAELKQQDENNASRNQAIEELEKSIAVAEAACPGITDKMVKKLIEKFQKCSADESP

Chain of off-target kinases (Homo sapiens, UniProt Q8N4C8) (Q8N4C8 whole entry): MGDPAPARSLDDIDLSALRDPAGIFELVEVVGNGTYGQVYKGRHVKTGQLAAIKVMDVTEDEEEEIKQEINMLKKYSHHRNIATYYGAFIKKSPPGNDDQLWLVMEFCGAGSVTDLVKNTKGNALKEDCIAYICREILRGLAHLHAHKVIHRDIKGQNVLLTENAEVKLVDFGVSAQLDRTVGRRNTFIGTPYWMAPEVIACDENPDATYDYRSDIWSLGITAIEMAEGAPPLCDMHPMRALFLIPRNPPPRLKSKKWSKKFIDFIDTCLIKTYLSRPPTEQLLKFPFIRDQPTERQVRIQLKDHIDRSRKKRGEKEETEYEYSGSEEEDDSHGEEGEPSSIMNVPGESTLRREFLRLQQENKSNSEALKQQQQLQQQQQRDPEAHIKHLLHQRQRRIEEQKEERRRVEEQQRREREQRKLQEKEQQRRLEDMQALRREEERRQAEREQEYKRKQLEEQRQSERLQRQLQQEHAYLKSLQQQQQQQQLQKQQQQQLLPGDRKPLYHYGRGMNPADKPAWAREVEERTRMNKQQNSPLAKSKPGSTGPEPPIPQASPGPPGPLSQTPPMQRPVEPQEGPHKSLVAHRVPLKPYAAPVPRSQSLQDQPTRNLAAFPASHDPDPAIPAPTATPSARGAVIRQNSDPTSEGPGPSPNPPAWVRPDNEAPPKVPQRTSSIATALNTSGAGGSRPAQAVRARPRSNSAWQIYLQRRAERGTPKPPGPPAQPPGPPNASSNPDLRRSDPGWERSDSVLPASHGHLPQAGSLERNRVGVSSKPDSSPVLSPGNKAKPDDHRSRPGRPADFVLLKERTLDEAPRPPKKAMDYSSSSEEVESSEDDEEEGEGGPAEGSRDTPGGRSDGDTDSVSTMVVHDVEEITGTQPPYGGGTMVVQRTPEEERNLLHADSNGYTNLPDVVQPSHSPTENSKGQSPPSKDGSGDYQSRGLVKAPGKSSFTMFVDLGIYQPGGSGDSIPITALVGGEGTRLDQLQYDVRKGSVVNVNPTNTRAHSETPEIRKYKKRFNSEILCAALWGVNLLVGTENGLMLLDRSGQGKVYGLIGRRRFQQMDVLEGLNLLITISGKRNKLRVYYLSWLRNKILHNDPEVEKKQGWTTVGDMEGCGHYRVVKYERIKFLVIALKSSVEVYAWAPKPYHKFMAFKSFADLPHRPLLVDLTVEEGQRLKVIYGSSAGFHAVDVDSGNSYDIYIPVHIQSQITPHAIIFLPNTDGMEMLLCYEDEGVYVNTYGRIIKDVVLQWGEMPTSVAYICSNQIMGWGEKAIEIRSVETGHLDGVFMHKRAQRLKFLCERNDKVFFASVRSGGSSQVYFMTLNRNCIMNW
Chain of off-target kinases (Homo sapiens, UniProt P10721, T670E) (P10721 26-976 T670E): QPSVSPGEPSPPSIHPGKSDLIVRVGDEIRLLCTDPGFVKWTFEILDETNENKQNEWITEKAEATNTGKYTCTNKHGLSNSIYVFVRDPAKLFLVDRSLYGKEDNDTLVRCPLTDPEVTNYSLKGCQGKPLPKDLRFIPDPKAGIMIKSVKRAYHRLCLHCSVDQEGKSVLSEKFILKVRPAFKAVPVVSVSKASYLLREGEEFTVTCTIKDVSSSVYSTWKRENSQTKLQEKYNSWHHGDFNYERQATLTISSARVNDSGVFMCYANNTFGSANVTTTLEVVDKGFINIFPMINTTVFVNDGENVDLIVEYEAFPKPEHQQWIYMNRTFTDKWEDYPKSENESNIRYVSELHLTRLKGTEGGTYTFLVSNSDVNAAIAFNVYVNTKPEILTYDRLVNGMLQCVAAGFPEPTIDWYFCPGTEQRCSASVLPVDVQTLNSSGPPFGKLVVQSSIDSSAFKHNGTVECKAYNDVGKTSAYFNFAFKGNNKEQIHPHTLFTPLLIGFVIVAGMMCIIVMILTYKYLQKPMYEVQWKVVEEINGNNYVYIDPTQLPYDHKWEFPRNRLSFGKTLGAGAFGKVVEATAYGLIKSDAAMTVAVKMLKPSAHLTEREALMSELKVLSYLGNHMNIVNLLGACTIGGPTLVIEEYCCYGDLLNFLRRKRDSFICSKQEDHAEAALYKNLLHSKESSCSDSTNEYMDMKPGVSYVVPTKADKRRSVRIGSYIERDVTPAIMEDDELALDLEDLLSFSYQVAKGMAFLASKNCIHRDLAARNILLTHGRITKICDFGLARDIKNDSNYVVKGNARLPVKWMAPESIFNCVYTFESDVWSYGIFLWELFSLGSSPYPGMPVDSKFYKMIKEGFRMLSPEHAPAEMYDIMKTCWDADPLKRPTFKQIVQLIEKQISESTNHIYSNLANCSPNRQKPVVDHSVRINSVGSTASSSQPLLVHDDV

For `N#Cc1cc(-c2ncnc(Nc3ccc(N4CCN(C5COC5)CC4)cc3)n2)ccc1OC1CCOCC1` [Compound 1, 5-(4-((4-(4-(oxetan-3-yl)piperazin-1-yl)phenyl)amino)-1,3,5-triazin-2-yl)-2-((tetrahydro-2H-pyran-4-yl)oxy)benzonitrile], which inhibition (off-target kinases [1]; read-out: % Inhibition 1) is on record?
Its inhibition is 2%.

What about the inhibition (off-target kinases [1]; read-out: % Inhibition 2) of the same molecule?
The inhibition was 2%.

What about the inhibition (off-target kinases [1]; read-out: % Inhibition Avg) of the same molecule?
Its inhibition is 2%.

What about the inhibition (off-target kinases [2]; read-out: % Inhibition 1) of the same molecule?
The inhibition was 16%.

What about the inhibition (off-target kinases [2]; read-out: % Inhibition 2) of the same molecule?
Its inhibition is 13%.

What about the inhibition (off-target kinases [2]; read-out: % Inhibition Avg) of the same molecule?
The inhibition was 14%.

What about the inhibition (off-target kinases [3]; read-out: % Inhibition 1) of the same molecule?
Its inhibition is 66%.

What about the inhibition (off-target kinases [3]; read-out: % Inhibition 2) of the same molecule?
The inhibition was 70%.

And the inhibition (off-target kinases [3]; read-out: % Inhibition Avg)?
The inhibition was 68%.

What about the inhibition (off-target kinases [4]; read-out: % Inhibition 1) of the same molecule?
The inhibition was 2%.

And the inhibition (off-target kinases [4]; read-out: % Inhibition 2)?
Its inhibition is 3%.

And the inhibition (off-target kinases [4]; read-out: % Inhibition Avg)?
The inhibition was 2%.
